Target: SARS2 coronavirus 3CL protease (Severe acute respiratory syndrome coronavirus 2, UniProt P0DTD1)
Assay: SARS2 Coronavirus 3CL Protease Assay (FRET)
Type: biochemical
Settings: 5 nM protease pre-incubated with compound 30 minutes; 15 uM peptide substrate; 4 h room temperature; read-out: FRET Potency (nM); IC50 values in the SARS2 3CLPro FRET assay
Method: The enzymatic activity of SARS2 coronavirus 3CL protease was determined in a FRET (fluorescence resonance energy transfer)-based assay measuring the cleavage of a peptide substrate by recombinantly expressed and purified enzyme. Cleavage of the peptide SEQ ID NO: 1 (CPC Scientific) by SARS2 3CL protease was measured in reaction buffer (50 mM Hepes pH 7.5, 0.01% Triton X-100, 0.01% BSA, 2 mM DTT). […] Room temperature reactions (4 h) were quenched by addition of a high dose of inhibitor and read on an appropriate plate reader (excitation wavelength=495 nm, emission wavelength=520 nm). Data were analyzed by a standard 4 parameter fit to determine IC50 values.

| SMILES | IC50 [nM] |
| --- | --- |
| CNC(=O)C(=O)[C@H](CCC(C)(F)F)NC(=O)c1cc(F)cnc1NC(=O)C1CC(F)(F)C1 [Example 28, 2-[(3,3-difluorocyclobutanecarbonyl)amino]-N-[(1S)-4,4-difluoro-1-[2-(methylamino)-2-oxo-acetyl]pentyl]-5-fluoro-pyridine-3-carboxamide] | 19.8 |
| CC(F)(F)CC[C@H](NC(=O)c1cc(Cl)cnc1NC(=O)c1cccc(F)c1)C(=O)C(=O)NC1CC1 [Example 29, 5-chloro-N-[(1S)-1-[2-(cyclopropylamino)-2-oxo-acetyl]-4,4-difluoro-pentyl]-2-[(3-fluorobenzoyl)amino]pyridine-3-carboxamide] | 20.4 |
| CNC(=O)C(=O)[C@H](CCC(C)(F)F)NC(=O)c1cc(Cl)ccc1NC(=O)C1CC1C(F)(F)F (stereo partly drawn) [Example 30, 5-chloro-N-[(1S)-4,4-difluoro-1-[2-(methylamino)-2-oxo-acctyl]pentyl]-2-[[2-(trifluoromethyl)cyclopropane-carbonyl]amino]benzamide] | 20.7 |
| CNC(=O)C(=O)[C@H](CCC(C)(F)F)NC(=O)c1cc(Cl)ccc1NC(=O)C1CC1C(F)(F)F (stereo partly drawn) [Example 32, 5-chloro-N-[(1S)-4,4-difluoro-1-[2-(methylamino)-2-oxo-acetyl]pentyl]-2-[[2-(trifluoromethyl)cyclopropane-carbonyl]amino]benzamide] | 21.3 |
| CNC(=O)C(=O)[C@H](CCC(C)(F)F)NC(=O)c1cc(F)cnc1NC(=O)c1cccc(F)c1 [Example 34, N-[(1S)-4,4-difluoro-1-[2-(methylamino)-2-oxo-acetyl]pentyl]-5-fluoro-2-[(3-fluorobenzoyl)amino]pyridine-3-carboxamide] | 23.8 |
| CNC(=O)C(=O)[C@H](CCC(C)(F)F)NC(=O)c1cc(F)cnc1NC(=O)C12CC(F)(C1)C2 [Example 35, N-[(1S)-4,4-difluoro-1-[2-(methylamino)-2-oxo-acetyl]pentyl]-5-fluoro-2-[(3-fluorobicyclo[1.1.1]pentane-1-carbonyl)amino]pyridine-3-carboxamide] | 23.9 |
| CNC(=O)C(=O)[C@H](CCC(C)(F)F)NC(=O)c1cc(Cl)cnc1NC(=O)C1(C(F)(F)F)CC1 [Example 36, 5-chloro-N-[(1S)-4,4-difluoro-1-[2-(methylamino)-2-oxo-acetyl]pentyl]-2-[[1-(trifluoromethyl)cyclopropane-carbonyl]amino]pyridine-3-carboxamide] | 24.4 |
| CNC(=O)C(=O)[C@H](CCC(C)(F)F)NC(=O)c1cc(C#N)ccc1NC(=O)C12CC(C(F)(F)F)(C1)C2 [Example 37, N-[4-cyano-2-[[(1S)-4,4-difluoro-1-[2-(methylamino)-2-oxo-acetyl]pentyl]carbamoyl]phenyl]-3-(trifluoromethyl)bicyclo[1.1.1] pentane-1-carboxamide] | 31.1 |
| CNC(=O)C(=O)[C@H](CCC(C)(F)F)NC(=O)c1cc(Cl)cnc1NC(=O)C12CC(F)(C1)C2 [Example 38, 5-chloro-N-[(1S)-4,4-difluoro-1-[2-(methylamino)-2-oxo-acetyl]pentyl]-2-[(3-fluorobicyclo[1.1.1]pentane-1-carbonyl)amino]pyridine-3-carboxamide] | 40.4 |
| CC(F)(F)CC[C@H](NC(=O)c1cc(C(F)(F)F)cnc1NC(=O)c1cccc(C(F)(F)F)c1)C(=O)C(=O)NC1CC1 [Example 39, N-[(1S)-1-[2-(cyclopropylamino)-2-oxo-acetyl]-4,4-difluoro-pentyl]-5-(trifluoromethyl)-2-[[3-(trifluoromethyl)benzoyl]amino]pyridine-3-carboxamide] | 40.9 |
| CC(F)(F)CC[C@H](NC(=O)c1cc(F)cnc1NC(=O)c1cccc(F)c1)C(=O)C(=O)NC1CC1 [Example 40, N-[(1S)-1-[2-(cyclopropylamino)-2-oxo-acetyl]-4,4-difluoro-pentyl]-5-fluoro-2-[(3-fluorobenzoyl)amino]pyridine-3-carboxamide] | 41.6 |
| CNC(=O)C(=O)[C@H](CCC(C)(F)F)NC(=O)c1cc(C#N)ccc1NC(=O)c1cccc(F)c1 [Example 41, 5-cyano-N-[(1S)-4,4-difluoro-1-[2-(methylamino)-2-oxo-acetyl]pentyl]-2-[(3-fluorobenzoyl)amino]benzamide] | 45.3 |
| CNC(=O)C(=O)[C@H](CCC(C)(F)F)NC(=O)c1cc(F)ccc1NC(=O)C1(C(F)(F)F)CC1 [Example 42, N-[(1S)-4,4-difluoro-1-[2-(methylamino)-2-oxo-acetyl]pentyl]-5-fluoro-2-[[1-(trifluoromethyl)cyclopropane-carbonyl]amino]benzamide] | 47 |
| CNC(=O)C(=O)[C@H](CCC(C)(F)F)NC(=O)c1cc(F)cnc1NC(=O)C(C)(C)C [Example 43, N-[(1S)-4,4-difluoro-1-[2-(methylamino)-2-oxo-acetyl]pentyl]-2-(2,2-dimethylpropanoylamino)-5-fluoro-pyridine-3-carboxamide] | 49.6 |
| CC(F)(F)CC[C@H](NC(=O)c1cc(Cl)cnc1NC(=O)C1(C(F)(F)F)CC1)C(=O)C(=O)NC1CC1 [Example 44, 5-chloro-N-[(1S)-1-[2-(cyclopropylamino)-2-oxo-acetyl]-4,4-difluoro-pentyl]-2-[[1-(trifluoromethyl)cyclopropane-carbonyl]amino]pyridine-3-carboxamide] | 50.4 |
| Cc1cnc(NC(=O)c2cccc(C(F)(F)F)c2)c(C(=O)N[C@@H](CCC(C)(F)F)C(=O)C(=O)NC2CC2)c1 [Example 45, N-[(1S)-1-[2-(cyclopropylamino)-2-oxo-acetyl]-4,4-difluoro-pentyl]-5-methyl-2-[[3-(trifluoromethyl)benzoyl]amino]pyridine-3-carboxamide] | 76.2 |
| CC(F)(F)CC[C@H](NC(=O)c1cc(F)cnc1NC(=O)C(C)(C)C)C(=O)C(=O)NC1CC1 [Example 46, N-[(1S)-1-[2-(cyclopropylamino)-2-oxo-acetyl]-4,4-difluoro-pentyl]-2-(2,2-dimethylpropanoylamino)-5-fluoro-pyridine-3-carboxamide] | 94.8 |
| CNC(=O)C(=O)[C@H](CCC(C)(F)F)NC(=O)c1cc(Cl)ccc1NC(=O)C1CC1C(F)(F)F (stereo partly drawn) [Example 47, 5-chloro-N-[(1S)-4,4-difluoro-1-[2-(methylamino)-2-oxo-acetyl]pentyl]-2-[[2-(trifluoromethyl)cyclopropane-carbonyl]amino]benzamide] | 20.5 |
| CNC(=O)C(=O)[C@H](CCC(C)(F)F)NC(=O)c1cc(Cl)ccc1NC(=O)C1CC1C(F)(F)F (stereo partly drawn) [Example 48, 5-chloro-N-[(1S)-4,4-difluoro-1-[2-(methylamino)-2-oxo-acetyl]pentyl]-2-[[2-(trifluoromethyl)cyclopropane-carbonyl]amino]benzamide] | 11.3 |
| CNC(=O)C(=O)[C@H](CCC(C)(F)F)NC(=O)c1cc(Cl)ccc1NC(=O)OC [Example 49, methyl N-[4-chloro-2-[[(1S)-4,4-difluoro-1-[2-(methylamino)-2-oxo-acetyl]pentyl]carbamoyl]phenyl]carbamate] | 7.1 |
| CNC(=O)C(=O)[C@H](CCC(C)(F)F)NC(=O)c1cc(Cl)ccc1NC(=O)C1CN(C)C1 [Example 50, N-[4-chloro-2-[[(1S)-4,4-difluoro-1-[2-(methylamino)-2-oxo-acetyl]pentyl]carbamoyl]phenyl]-1-methyl-azetidine-3-carboxamide] | 21.8 |
| CNC(=O)C(=O)[C@H](CCC(C)(F)F)NC(=O)c1cc(Cl)ccc1NC(=O)c1cncc(C#N)c1 [Example 51, N-[4-chloro-2-[[(1S)-4,4-difluoro-1-[2-(methylamino)-2-oxo-acetyl]pentyl]carbamoyl]phenyl]-5-cyano-pyridine-3-carboxamide] | 15.1 |
| CNC(=O)C(=O)[C@H](CCC(C)(F)F)NC(=O)c1cc(Cl)ccc1NC(=O)c1cccnc1 [Example 52] | 15.6 |
| CC(F)(F)CC[C@H](NC(=O)c1cc(Cl)ccc1NC(=O)CCC(F)(F)F)C(=O)C(N)=O [Example 53, 5-chloro-N-[(1S)-4,4-difluoro-1-oxamoyl-pentyl]-2-(4,4,4-trifluorobutanoylamino) benzamide] | 97.5 |
| CNC(=O)C(=O)[C@H](CCC(C)(F)F)NC(=O)c1cc(Cl)cnc1NC(=O)C1CC(F)(F)C1 [Example 54, 5-chloro-2-[(3,3-difluorocyclobutanecarbonyl)amino]-N-[(1S)-4,4-difluoro-1-[2-(methylamino)-2-oxo-acetyl]pentyl]pyridine-3-carboxamide] | 7.5 |
| CNC(=O)C(=O)[C@H](CCC(C)(F)F)NC(=O)c1cc(Cl)ncc1NC(=O)OC [Example 55, methyl N-[6-chloro-4-[[(1S)-4,4-difluoro-1-[2-(methylamino)-2-oxo-acetyl]pentyl]carbamoyl]-3-pyridyl]carbamate] | 93.8 |
| CNC(=O)C(=O)[C@H](CCC(C)(F)F)NC(=O)c1cc(Cl)cnc1NC(=O)OC [Example 56, methyl N-[5-chloro-3-[[(1S)-4,4-difluoro-1-[2-(methylamino)-2-oxo-acetyl]pentyl]carbamoyl]-2-pyridyl]carbamate] | 4.2 |
| CNC(=O)C(=O)[C@H](CCC(C)(F)F)NC(=O)c1cc(Cl)ccc1NC(=O)N(C)CC1CCC(F)(F)CC1 [Example 57, (S)-5-chloro-N-(6,6-difluoro-1-(methylamino)-1,2-dioxoheptan-3-yl)-2-(3-((4,4-difluorocyclohexyl)methyl)-3-methylureido)benzamide] | 6 |
| CNC(=O)C(=O)[C@H](CCC(C)(F)F)NC(=O)c1cc(Cl)ccc1NC(=O)C(C)C [Example 58, 5-chloro-N-[(1S)-4,4-difluoro-1-[2-(methylamino)-2-oxo-acetyl]pentyl]-2-(2-methylpropanoylamino) benzamide] | 6.2 |

From US20260209180A1, “PROTEASE INHIBITORS FOR TREATING OR PREVENTING CORONAVIRUS INFECTION” (Merck Sharp & Dohme LLC, priority 2023, published 2026)
